Test results taken from patent publication US7888042B2, “Methods for identifying insulin mimetics” (Ohio University, priority 2005, dated 2011).

Legend:
[1] = target: T1, IR isolated from CHO-IR cells (Homo sapiens, UniProt P06213); assay: 125I-insulin displacement assay in WGA-coated wells; type: binding; conditions: 1 nM 125I-labeled insulin; read-out: IC50 for displacement of IR-bound radioactive insulin
T1 construct: expressed in transfected cells; host or cells: CHO-IR cells (from Dr. Alan Saltiel's lab)
Protocol: (§1) (A) α-PGG binds to IR as measured by a SPR (28). Increasing concentrations of α-PGG was injected into the system to interact with the pure IR attached to the gold surface of the biosensor chip. The binding, represented in arbitrary response units, was automatically plotted against α-PGG concentrations to generate the binding curve. (B) Insulin binding to IR in the absence or presence of α-PGG. Increasing amounts of ^125I-labeled insulin were added to WGA-coated wells containing pre-bound IR isolated from CHO-IR cells in the absence of α-PGG or in the presence of 30 μM or 50 μM of α-PGG. After overnight incubation, removal of excessive ligands, and washing, the bound radioactive insulin was measured. (C) Insulin displacement by α-PGG. Fixed amounts of radioactive insulin (1 nM) were added to each of the WGA-coated wells pre-bound with IR. Increasing amounts of α-PGG were added to the wells to displace the ^125I-labeled insulin. […]
(§2) Insulin receptor binding studies. […] After sensograms of α-PGG-IR binding at different concentrations were recorded, the binding affinity was analyzed using BIAevaluation software. […] The bound ligand was detached (eluted) from the receptor with 2×200 μL 0.2M Glycine pH 2.8, and measured for its radioactivity using a Beckman Coulter LS 6400 Multi-Purpose Scintillation Counter. […] The receptor binding results were analyzed with the software GraphPad Prism.

db/db mice = assay: Blood glucose in fasting db/db mice, oral dose; type: in vivo
Protocol: Either 6-8 week old male db/db mice or 8-12 week old male ob/ob mice were treated with aqueous solutions of α-PGG by either oral delivery (˜10 μL, A & B) or ip injection (˜50 μL, C, & D). (n=8-10, mean±SD, one-way ANOVA). α-PGG (●); vehicle (∘). α-PGG (20 mg/kg) was orally delivered without glucose to fasting db/db mice (A *, P<0.02; **, P<0.01; ***, P<0.001) or with glucose (0.4 g/kg body weight) to fasting ob/ob mice (B, glucose tolerance test). α-PGG (20 mg/kg) was ip injected into ob/ob mice on day 0 and day 4 (C). A single ip injection (20 mg/kg) of α-PGG was administered to ob/ob mice (D). Glucose (A, B, C) or insulin (D) was determined from sera or plasma isolated from tail vein blood. Animal studies. Genetically diabetic db/db mice or obese ob/ob mice were purchased from Jackson Lab. Male mice of 2-3 months of age were used. Unless otherwise stated, 10 mice (N=10) were used per group. α-PGG was either orally administered or intraperitoneally (ip) injected in the form of an aqueous solution at 20 mg/kg body weight with a 1-cc sterile plastic syringe. At different times after the α-PGG administration, blood or plasma was collected from the tail vein for measurement of glucose and insulin concentrations using commercial kits. Vehicle (aqueous solution) treated mice were used as controls and were statistically compared with the α-PGG treated mice. All animal studies were conducted in accord with the Ohio University guidelines for the use and care of laboratory animals.

[2] = target: T1, IR isolated from CHO-IR cells; assay: 125I-insulin saturation binding to IR in WGA-coated wells; conditions: 30 μM or 50 μM α-PGG
Protocol: as §1, §2

T1 sequence (P06213 28-758 limits assumed): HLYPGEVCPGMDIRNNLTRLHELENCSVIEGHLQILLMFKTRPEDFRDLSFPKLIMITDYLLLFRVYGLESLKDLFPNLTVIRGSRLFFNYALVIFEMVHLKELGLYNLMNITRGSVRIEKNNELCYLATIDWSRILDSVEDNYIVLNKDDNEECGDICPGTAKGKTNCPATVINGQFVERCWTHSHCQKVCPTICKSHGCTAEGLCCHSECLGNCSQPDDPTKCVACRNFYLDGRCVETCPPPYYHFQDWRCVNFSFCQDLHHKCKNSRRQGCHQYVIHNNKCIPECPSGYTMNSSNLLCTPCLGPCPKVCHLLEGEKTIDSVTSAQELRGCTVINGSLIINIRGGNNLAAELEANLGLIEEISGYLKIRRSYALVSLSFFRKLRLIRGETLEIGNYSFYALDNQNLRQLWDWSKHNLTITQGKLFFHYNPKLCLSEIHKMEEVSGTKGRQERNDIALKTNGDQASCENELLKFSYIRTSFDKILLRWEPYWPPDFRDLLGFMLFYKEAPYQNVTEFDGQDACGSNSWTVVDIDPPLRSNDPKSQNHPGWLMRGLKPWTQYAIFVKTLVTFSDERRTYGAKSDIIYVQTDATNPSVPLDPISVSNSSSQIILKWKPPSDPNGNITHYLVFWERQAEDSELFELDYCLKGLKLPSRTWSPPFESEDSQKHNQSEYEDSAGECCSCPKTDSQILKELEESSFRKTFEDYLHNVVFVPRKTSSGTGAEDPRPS
T1 sequence (P06213 763-1382 partner limits assumed): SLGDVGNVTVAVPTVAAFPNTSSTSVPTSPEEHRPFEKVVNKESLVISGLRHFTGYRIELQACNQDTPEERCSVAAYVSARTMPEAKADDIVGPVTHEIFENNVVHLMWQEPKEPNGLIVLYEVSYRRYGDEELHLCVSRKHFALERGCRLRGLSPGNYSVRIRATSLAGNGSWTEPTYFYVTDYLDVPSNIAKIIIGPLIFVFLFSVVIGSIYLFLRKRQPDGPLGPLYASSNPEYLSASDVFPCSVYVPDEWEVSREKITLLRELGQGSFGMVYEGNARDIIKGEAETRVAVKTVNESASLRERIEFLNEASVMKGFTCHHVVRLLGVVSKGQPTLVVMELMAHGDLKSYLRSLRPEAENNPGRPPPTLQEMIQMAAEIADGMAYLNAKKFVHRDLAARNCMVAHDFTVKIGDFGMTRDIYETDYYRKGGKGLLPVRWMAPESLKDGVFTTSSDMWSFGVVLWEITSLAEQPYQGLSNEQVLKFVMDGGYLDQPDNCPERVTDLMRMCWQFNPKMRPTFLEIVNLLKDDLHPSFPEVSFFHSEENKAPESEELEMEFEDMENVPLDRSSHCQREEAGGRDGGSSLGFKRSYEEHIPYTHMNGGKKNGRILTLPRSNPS

With `O=C(OC[C@H]1O[C@H](OC(=O)c2cc(O)c(O)c(O)c2)[C@H](OC(=O)c2cc(O)c(O)c(O)c2)[C@@H](OC(=O)c2cc(O)c(O)c(O)c2)[C@@H]1OC(=O)c1cc(O)c(O)c(O)c1)c1cc(O)c(O)c(O)c1` [α-PGG, alpha 1,2,3,4,6-penta-O-galloyl-D-Glucopyranose] the IC50 [1] was 10 ± 1 µM, the “duration of blood glucose difference” value (db/db mice; oral 20 mg/kg) was “at least 5 hours” and the “glucose level lower than control group” value (db/db mice; oral 20 mg/kg, 4 to 6 hours after treatment) was “about 20%”. The blood glucose levels (db/db mice; single oral dose 20 mg/kg) was “significantly decreased” and the “maximal binding (Bmax) for insulin” value [2] was “reduced in a dose-dependent manner”.
